This series can be described thus: solubility in water. It is filed as physicochemical.

`NC(=O)C(CCC(=O)[O-])NC(=O)Cc1ccccc1.[Na+]` (stereo not shown) [Iso-PG, phenylacetylisoglutaminate sodium]: the solubility in water result is reported as “soluble in water”.

Source of the values: patent US12186290B2, “Methods for the treatment of glioblastoma multiforme” (priority 2017, dated 2025).
